Where a SMILES comes first, the peptide text is derived from it. Side-chain parts run from the residue outwards. [ ]: non-standard residue; d: D form. The star is where a group is joined. DOTA(Ga) = O=C1CN2CCN3CCN(CC(=O)*)CCN(CC2)CC(=O)[O][Ga]([O]1)[O]C(=O)C3; DOTA(In) = O=C1CN2CCN3CCN(CC(=O)*)CCN(CC2)CC(=O)[O][In]([O]1)[O]C(=O)C3; DOTA = O=C(O)CN1CCN(CC(=O)O)CCN(CC(=O)*)CCN(CC(=O)O)CC1; 2Nal = N[C@@H](Cc1ccc2ccccc2c1)C(=O)O; dNMeOrn = CN[C@H](CCCN)C(=O)O; 4Abz = Nc1ccc(C(=O)O)cc1; AEEA = NCCOCCOCC(=O)O; Ava = NCCCCC(=O)O; βAla = NCCC(=O)O
Biological target: T1, human-CXCR4 (Homo sapiens, UniProt P61073)
T1 construct: tested first at Jurkat cells that endogenously express the CXCR4 receptor; endogenous in cells; host or cells: Jurkat cells (whole cells in suspension)
T1 sequence (P61073 whole entry): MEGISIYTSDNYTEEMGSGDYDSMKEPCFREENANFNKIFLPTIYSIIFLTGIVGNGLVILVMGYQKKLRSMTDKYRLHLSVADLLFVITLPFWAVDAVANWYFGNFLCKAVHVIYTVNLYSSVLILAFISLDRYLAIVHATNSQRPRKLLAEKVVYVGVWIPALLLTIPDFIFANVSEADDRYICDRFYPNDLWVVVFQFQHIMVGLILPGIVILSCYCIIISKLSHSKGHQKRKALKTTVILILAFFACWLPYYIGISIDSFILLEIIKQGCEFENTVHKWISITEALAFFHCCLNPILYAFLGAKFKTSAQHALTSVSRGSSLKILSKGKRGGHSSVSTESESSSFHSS
Test: Competition binding assay on Jurkat cells with 125I-CPCR4 as radiotracer
Settings: IC50 (Exemplary Binding Study A), Jurkat cells, 125I-CPCR4 tracer, n=4
Experimental: For receptor binding assays cells may be resuspended in PBS/0.2% BSA. A total of 200 μl of the suspension containing 400,000 Jurkat cells may be incubated with 25 μl of the tracer solution (containing 3.1 kBq, approx. 0.1 nM) and 25 μl of the diluent or the competitor at different concentrations. […] After shaking for 2 h at room temperature, the incubation may be terminated by centrifugation at 1300 rpm for 5 min, Cell pellets may be washed once with cold PBS followed by a second centrifugation step. Cell bound radioactivity may be determined by using a gamma counter. Experiments may be repeated 2-3 times in triplicates. IC50 values of the compounds may be calculated by nonlinear regression using GraphPad Prism (GraphPad Prism 4.0 Software, Inc., San Diego, Calif., USA). Each data point may be the average of three determinations.
Cells were resuspended in 0.2% PBS/0.2% BSA. A total of 200 μL of the suspension containing 2×10^6 Jurkat cells/ml or 400000 cell/200 μl were incubated with 25 μL of the tracer solution (containing 100,000 cpm, approx. 0.1 nM) and 25 μL of competitor dissolved in ultra pure H2O or, if necessary, up to 20% DMSO at different concentrations. The tracer concentration was varied from 5 to 500 pM.
After 2 h at room temperature, the incubation was terminated by centrifugation at 2000 rpm for 5 min. Cell pellets were washed once with 400 μL cold PBS. Cell bound radioactivity was determined by using a gamma counter. Experiments were repeated three times in triplicates. IC50 values of the peptides were calculated by nonlinear regression using GraphPad Prism (GraphPad Prism 4.0 Software, San Diego, Calif., USA).
The cell concentration was determined with a Casy cell counter (500 cell suspension in 10 ml Casy solution (Innovartis AG, Casy technology). The desired cell suspension volume was transferred into an Eppendorf tube, centrifuged, the supernatant was discarded and the pellet was resuspended in 20 ml 0.2% PBS-BSA-buffer.
Subsequently, the tubes were placed on a shaker for 2 h (200 mot/min). Thereafter, the tubes were centrifuged for 5 min at 2000 rpm and the supernatant carefully removed. The pellets were washed with 400 μl PBS and the tubes were again centrifuged for 5 min at 2000 rpm. After the supernatant was carefully removed, the tubes were measured in a gamma counter. All data were analyzed with a suitable software package, i.e. GraphPad Prism 4 with the following parameters: Equation: Sigmoidal dose-response, Y=Bottom+(Top−Bottom)/(1+10^((Log EC50−X))); X is the logarithm of concentration; Y is the response; Y starts at bottom and goes to top with a sigmoid shape.

Molecule | IC50
CN1C(=O)[C@@H](Cc2ccc(O)cc2)NC(=O)CNC(=O)[C@H](Cc2ccc3ccccc3c2)NC(=O)[C@H](CCCNC(=N)N)NC(=O)[C@H]1CCCNC(=O)c1ccc(CNC(=O)CN2CCN(CC(=O)O)CCN(CC(=O)O)CCN(CC(=O)O)CC2)cc1 (single isomer, unassigned) [Compound 9, yorn′(AMBS, DOTA, Ga)RNalG] | 4.78 ± 0.73 nM

Same assay, conditions: IC50 [nM] (Binding Data), Jurkat cells, 125I-CPCR4 tracer, 2 h at room temperature

Molecule | IC50
CN1C(=O)[C@@H](Cc2ccc(O)cc2)NC(=O)CNC(=O)[C@H](Cc2ccc3ccccc3c2)NC(=O)[C@H](CCCNC(=N)N)NC(=O)[C@H]1CCCNC(=O)c1ccc(CNC(=O)CN2CCN(CC(=O)O)CCN(CC(=O)O)CCN(CC(=O)O)CC2)cc1 (single isomer, unassigned) [Compound 9, yorn′(AMBS, DOTA, Ga)RNalG] | 7 ± 4.25 nM

Same assay, conditions: Jurkat cells, 125I-CPCR4 tracer, 2 h at room temperature; read-out: IC50 [nM] (Binding Data)

Molecule | IC50
CN1C(=O)[C@@H](Cc2ccc(O)cc2)NC(=O)CNC(=O)[C@H](Cc2ccc3ccccc3c2)NC(=O)[C@H](CCCNC(=N)N)NC(=O)[C@H]1CCCNC(=O)CCCCNC(=O)CCCCNC(=O)CN1CCN2CCN3CCN(CC1)CC(=O)[O][Ga]([O]C(=O)C2)[O]C(=O)C3 [Compound 24, yorn′(AVS, AVS, DOTA, Ga)RNalG] (cyclo([2Nal]G[dY][dNMeOrn]([Ava-Ava-DOTA(Ga)])R)) | 89.7 ± 18.3 nM
CN1C(=O)[C@@H](Cc2ccc(O)cc2)NC(=O)CNC(=O)[C@H](Cc2ccc3ccccc3c2)NC(=O)[C@H](CCCNC(=N)N)NC(=O)[C@H]1CCCNC(=O)c1ccc(NC(=O)CCNC(=O)CN2CCN(CC(=O)O)CCN(CC(=O)O)CCN(CC(=O)O)CC2)cc1 [Compound 1, yorn′(ABS, betaAla, DOTA)RNalG] (cyclo([dY][dNMeOrn]([4Abz-βAla-DOTA])R[2Nal]G)) | 37.6 ± 14.7 nM
CN1C(=O)[C@@H](Cc2ccc(O)cc2)NC(=O)CNC(=O)[C@H](Cc2ccc3ccccc3c2)NC(=O)[C@H](CCCNC(=N)N)NC(=O)[C@H]1CCCNC(=O)CCCCNC(=O)CCCCNC(=O)CN1CCN2CCN3CCN(CC1)CC(=O)[O][In]([O]C(=O)C2)[O]C(=O)C3 [Compound 23, yorn′(AVS, AVS, DOTA, In)RNalG] (cyclo([2Nal]G[dY][dNMeOrn]([Ava-Ava-DOTA(In)])R)) | 123 ± 25 nM
CN1C(=O)[C@@H](Cc2ccc(O)cc2)NC(=O)CNC(=O)[C@H](Cc2ccc3ccccc3c2)NC(=O)[C@H](CCCNC(=N)N)NC(=O)[C@H]1CCCNC(=O)c1ccc(NC(=O)CN2CCN3CCN4CCN(CC2)CC(=O)[O][Ga]([O]C(=O)C3)[O]C(=O)C4)cc1 [Compound 17, yorn′(ABS, DOTA, Ga)RNalG] (cyclo([2Nal]G[dY][dNMeOrn]([4Abz-DOTA(Ga)])R)) | 11.5 ± 4.4 nM
CN1C(=O)[C@@H](Cc2ccc(O)cc2)NC(=O)CNC(=O)[C@H](Cc2ccc3ccccc3c2)NC(=O)[C@H](CCCNC(=N)N)NC(=O)[C@H]1CCCNC(=O)c1ccc(NC(=O)CN2CCN3CCN4CCN(CC2)CC(=O)[O][In]([O]C(=O)C3)[O]C(=O)C4)cc1 [Compound 16, yorn′(ABS, DOTA, In)RNalG] (cyclo([2Nal]G[dY][dNMeOrn]([4Abz-DOTA(In)])R)) | 105 nM
CN1C(=O)[C@@H](Cc2ccc(O)cc2)NC(=O)CNC(=O)[C@H](Cc2ccc3ccccc3c2)NC(=O)[C@H](CCCNC(=N)N)NC(=O)[C@H]1CCCNC(=O)c1ccc(NC(=O)CN2CCN(CC(=O)O)CCN(CC(=O)O)CCN(CC(=O)O)CC2)cc1 (single isomer, unassigned) [Compound 13, yorn′(ABS, DOTA, Ga)RNalG] | 11.5 ± 4.4 nM
CN1C(=O)[C@@H](Cc2ccc(O)cc2)NC(=O)CNC(=O)[C@H](Cc2ccc3ccccc3c2)NC(=O)[C@H](CCCNC(=N)N)NC(=O)[C@H]1CCCNC(=O)c1ccc(NC(=O)CN2CCN(CC(=O)O)CCN(CC(=O)O)CCN(CC(=O)O)CC2)cc1 [Compound 15, yorn′(ABS, DOTA)RNalG] | 335 nM
CN1C(=O)[C@@H](Cc2ccc(O)cc2)NC(=O)CNC(=O)[C@H](Cc2ccc3ccccc3c2)NC(=O)[C@H](CCCNC(=N)N)NC(=O)[C@H]1CCCNC(=O)CN1CCN2CCN3CCN(CC1)CC(=O)[O][In]([O]C(=O)C2)[O]C(=O)C3 [Compound 20, yorn′(DOTA, In)RNalG] (cyclo([2Nal]G[dY][dNMeOrn](DOTA(In))R)) | > 1000 nM
CN1C(=O)[C@@H](Cc2ccc(O)cc2)NC(=O)CNC(=O)[C@H](Cc2ccc3ccccc3c2)NC(=O)[C@H](CCCNC(=N)N)NC(=O)[C@H]1CCCNC(=O)CN1CCN2CCN3CCN(CC1)CC(=O)[O][Ga]([O]C(=O)C2)[O]C(=O)C3 [Compound 21, yorn′(DOTA, Ga)RNalG] (cyclo([2Nal]G[dY][dNMeOrn](DOTA(Ga))R)) | 289 nM
yorn′(ABS, betaAla, DOTA, In)RNalG [Compound 4] | 30.4 ± 3.68 nM
CN1C(=O)[C@@H](Cc2ccc(O)cc2)NC(=O)CNC(=O)[C@H](Cc2ccc3ccccc3c2)NC(=O)[C@H](CCCNC(=N)N)NC(=O)[C@H]1CCCNC(=O)c1ccc(NC(=O)CCCCNC(=O)CN2CCN(CC(=O)O)CCN(CC(=O)O)CCN(CC(=O)O)CC2)cc1 [Compound 18, yorn′(ABS, AVS, DOTA)RNalG] | 121 ± 17 nM
CN1C(=O)[C@@H](Cc2ccc(O)cc2)NC(=O)CNC(=O)[C@H](Cc2ccc3ccccc3c2)NC(=O)[C@H](CCCNC(=N)N)NC(=O)[C@H]1CCCNC(=O)c1ccc(NC(=O)CNC(=O)CN2CCN(CC(=O)O)CCN(CC(=O)O)CCN(CC(=O)O)CC2)cc1 [Compound 10, yorn′(ABS, G, DOTA)RNalG] | 88.8 ± 18.4 nM
CN1C(=O)[C@@H](Cc2ccc(O)cc2)NC(=O)CNC(=O)[C@H](Cc2ccc3ccccc3c2)NC(=O)[C@H](CCCNC(=N)N)NC(=O)[C@H]1CCCNC(=O)CNC(=O)COCCOCCNC(=O)CN1CCN2CCN3CCN(CC1)CC(=O)[O][In]([O]C(=O)C2)[O]C(=O)C3 [Compound 26, yorn′(G, Trigas, DOTA, In)RNalG] (cyclo([2Nal]G[dY][dNMeOrn]([Gly-AEEA-DOTA(In)])R)) | 457 nM

Same assay, conditions: read-out: IC50 [nM] (Binding Data)

Molecule | IC50
CN1C(=O)[C@@H](Cc2ccc(O)cc2)NC(=O)CNC(=O)[C@H](Cc2ccc3ccccc3c2)NC(=O)[C@H](CCCNC(=N)N)NC(=O)[C@H]1CCCNC(=O)c1ccc(CNC(=O)CN2CCN(CC(=O)O)CCN(CC(=O)O)CCN(CC(=O)O)CC2)cc1 (single isomer, unassigned) [Compound 8, yorn′(AMBS, DOTA, In)RNalG] | 44.9 ± 10.4 nM
CN1C(=O)[C@@H](Cc2ccc(O)cc2)NC(=O)CNC(=O)[C@H](Cc2ccc3ccccc3c2)NC(=O)[C@H](CCCNC(=N)N)NC(=O)[C@H]1CCCNC(=O)c1ccc(NC(=O)CCCCCNC(=O)CN2CCN(CC(=O)O)CCN(CC(=O)O)CCN(CC(=O)O)CC2)cc1 [Compound 14, yorn′(ABS, Ahx, DOTA)RNalG] | > 1000 nM

Source: US9266924B2, “Cyclopentapeptide derivatives and uses thereof” (TECHNISCHE UNIVERSITÄT MÜNCHEN, priority 2010, dated 2016)
